Tests used:
[1] = tested on: GLXMAW (Soybean, Williams); assay: Preemergence herbicidal evaluation; assay type: in vivo, Glycine max, (L.) Merr. cv Williams; details: rated 4-5 weeks after treatment
Procedure, shortened: (§1)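 Visual 0-9 rating vs control (stand, vigor, malformation, size, chlorosis, overall appearance), scored 4-5 wk after spraying. Seeded soil cups were treated preemergence with compound in aqueous acetone, ~0.0156-0.500 kg/ha equivalent.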

[2] = tested on: CHEAL (Lambsquarters, Common); assay: Postemergence herbicidal evaluation; assay type: in vivo, Chenopodium album; details: postemergence
Procedure, shortened: (§2)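 Seedlings grown about two weeks were sprayed at 40 psi with compound dispersed in 50/50 acetone/water plus 0.5% TWEEN 20, at about 0.0156 to 0.500 kg/ha. Plants were kept in the greenhouse and scored 4–5 weeks later on a 0–9 visual scale against untreated controls.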

[3] = tested on: IPOHE (Morningglory, Ivyleaf); assay: Preemergence herbicidal evaluation; assay type: in vivo, Ipomoea hederacea; details: rated 4-5 weeks after treatment
Procedure, shortened: as §1

[4] = tested on: IPOHE (Morningglory, Ivyleaf); assay: Postemergence herbicidal evaluation; assay type: in vivo, Ipomoea hederacea; details: postemergence
Procedure, shortened: as §2

[5] = tested on: CASOB (Sicklepod); assay: Preemergence herbicidal evaluation; assay type: in vivo, Cassia obtusifolia; details: rated 4-5 weeks after treatment
Procedure, shortened: as §1

[6] = tested on: TRZAWR (Wheat, Winter, cv Riband); assay: Postemergence herbicidal evaluation; assay type: in vivo, Triticum aestivum; details: postemergence
Procedure, shortened: as §2

[7] = tested on: AMBEL (Ragweed, Common); assay: Postemergence herbicidal evaluation; assay type: in vivo, Ambrosia artemisifolia; details: postemergence
Procedure, shortened: as §2

[8] = tested on: AMBEL (Ragweed, Common); assay: Preemergence herbicidal evaluation; assay type: in vivo, Ambrosia artemisifolia; details: rated 4-5 weeks after treatment
Procedure, shortened: as §1

[9] = tested on: CASOB (Sicklepod); assay: Postemergence herbicidal evaluation; assay type: in vivo, Cassia obtusifolia; details: postemergence
Procedure, shortened: as §2

[10] = tested on: ORYSAT (Rice, Tebonnet); assay: Preemergence herbicidal evaluation; assay type: in vivo, Oryza sativa, (L.) Tebonnet; details: rated 4-5 weeks after treatment
Procedure, shortened: as §1

[11] = tested on: MOOVA (Monochoria); assay: Preemergence weed control under flooded paddy conditions; assay type: in vivo, Monochoria vaginalis; details: rated 3-4 weeks after treatment
Procedure, shortened: (§3)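 Using flooded silt loam (water 1.5 to 3 cm deep), seeds sown in the top 0.5 cm were exposed preemergence to compound pipetted into the flood at about 0.0313 to 0.500 kg/ha. Effects were scored 0-9 by eye three to four weeks later.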

[12] = tested on: ECHCG (Barnyardgrass); assay: Postemergence herbicidal evaluation; assay type: in vivo, Echinochloa crus-galli; details: postemergence
Procedure, shortened: as §2

[13] = tested on: GLXMAW (Soybean, Williams); assay: Postemergence herbicidal evaluation; assay type: in vivo, Glycine max, (L.) Merr. cv Williams; details: postemergence
Procedure, shortened: as §2

[14] = tested on: ABUTH (Velvetleaf); assay: Preemergence herbicidal evaluation; assay type: in vivo, Abutilon theophrasti; details: rated 4-5 weeks after treatment
Procedure, shortened: as §1

[15] = tested on: CHEAL (Lambsquarters, Common); assay: Preemergence herbicidal evaluation; assay type: in vivo, Chenopodium album; details: rated 4-5 weeks after treatment
Procedure, shortened: as §1

[16] = tested on: SAGPY (Arrowhead (Pygmaea)); assay: Preemergence weed control under flooded paddy conditions; assay type: in vivo, Sagittaria pygmaea; details: rated 3-4 weeks after treatment
Procedure, shortened: as §3

`CCOC(=O)CN1C(=O)C(CC(=O)Nc2ccccc2)SC1=Nc1cc(-n2c(=O)cc(C(F)(F)F)n(C)c2=O)c(F)cc1Cl` (stereo not shown) [Compound 68, Ethyl 2-{{2-chloro-5-[3,6-dihydro-3-methyl-2,6-dioxo-4-(trifluoromethyl)-1(2H)-pyrimidinyl]-4-fluorophenyl}imino}-4-oxo-5-[(phenylcarbamoyl)-methyl]-3-thiazolidineacetate] was tested, and the “Preemergence herbicidal rating GLXMAW” value ([1]; rate 0.0156 kg/ha) was 0.0, the “Preemergence herbicidal rating GLXMAW” value ([1]; rate 0.0313 kg/ha) was 0.0 and the “Preemergence herbicidal rating GLXMAW” value ([1]; rate 0.0625 kg/ha) was 0.0. The “Preemergence herbicidal rating GLXMAW” value ([1]; rate 0.1250 kg/ha) was 1.0, the “Preemergence herbicidal rating GLXMAW” value ([1]; rate 0.2500 kg/ha) was 1.0 and the CHEAL herbicidal rating ([2]; rate 0.0158 kg/ha) was 4.0. For the same compound, the CHEAL herbicidal rating ([2]; rate 0.0315 kg/ha) was 7.0, the CHEAL herbicidal rating ([2]; rate 0.0630 kg/ha) was 7.0 and the “Preemergence herbicidal rating IPOHE” value ([3]; rate 0.0156 kg/ha) was 0.0. For the same compound, the “Preemergence herbicidal rating IPOHE” value ([3]; rate 0.0313 kg/ha) was 0.0, the “Preemergence herbicidal rating IPOHE” value ([3]; rate 0.0625 kg/ha) was 0.0 and the “Preemergence herbicidal rating IPOHE” value ([3]; rate 0.1250 kg/ha) was 0.0. The “Preemergence herbicidal rating IPOHE” value ([3]; rate 0.2500 kg/ha) was 6.0, the IPOHE herbicidal rating ([4]; rate 0.0158 kg/ha) was 9.0 and the IPOHE herbicidal rating ([4]; rate 0.0315 kg/ha) was 9.0. The IPOHE herbicidal rating ([4]; rate 0.0630 kg/ha) was 9.0, the “Preemergence herbicidal rating CASOB” value ([5]; rate 0.0156 kg/ha) was 0.0 and the “Preemergence herbicidal rating CASOB” value ([5]; rate 0.0313 kg/ha) was 0.0. The “Preemergence herbicidal rating CASOB” value ([5]; rate 0.0625 kg/ha) was 0.0, the “Preemergence herbicidal rating CASOB” value ([5]; rate 0.1250 kg/ha) was 0.0 and the “Preemergence herbicidal rating CASOB” value ([5]; rate 0.2500 kg/ha) was 1.0. The TRZAWR herbicidal rating ([6]; rate 0.0158 kg/ha) was 3.0, the TRZAWR herbicidal rating ([6]; rate 0.0315 kg/ha) was 3.5 and the TRZAWR herbicidal rating ([6]; rate 0.0630 kg/ha) was 4.0. The AMBEL herbicidal rating ([7]; rate 0.0158 kg/ha) was 9.0, the AMBEL herbicidal rating ([7]; rate 0.0315 kg/ha) was 9.0 and the AMBEL herbicidal rating ([7]; rate 0.0630 kg/ha) was 9.0. For the same compound, the “Preemergence herbicidal rating AMBEL” value ([8]; rate 0.0156 kg/ha) was 0.0, the “Preemergence herbicidal rating AMBEL” value ([8]; rate 0.0313 kg/ha) was 0.0 and the “Preemergence herbicidal rating AMBEL” value ([8]; rate 0.0625 kg/ha) was 0.0. For the same compound, the “Preemergence herbicidal rating AMBEL” value ([8]; rate 0.1250 kg/ha) was 1.0, the “Preemergence herbicidal rating AMBEL” value ([8]; rate 0.2500 kg/ha) was 7.0 and the CASOB herbicidal rating ([9]; rate 0.0158 kg/ha) was 1.0. The CASOB herbicidal rating ([9]; rate 0.0315 kg/ha) was 4.0, the CASOB herbicidal rating ([9]; rate 0.0630 kg/ha) was 7.0 and the “Preemergence herbicidal rating ORYSAT” value ([10]; rate 0.0156 kg/ha) was 0.0. For the same compound, the “Preemergence herbicidal rating ORYSAT” value ([10]; rate 0.0313 kg/ha) was 0.0, the “Preemergence herbicidal rating ORYSAT” value ([10]; rate 0.0625 kg/ha) was 0.0 and the “Preemergence herbicidal rating ORYSAT” value ([10]; rate 0.1250 kg/ha) was 0.0. For the same compound, the “Preemergence herbicidal rating ORYSAT” value ([10]; rate 0.2500 kg/ha) was 1.0, the “MOOVA herbicidal effect rating” value ([11]; 0.0313 kg/ha) was 3.0 and the “MOOVA herbicidal effect rating” value ([11]; 0.0625 kg/ha) was 9.0. For the same compound, the “MOOVA herbicidal effect rating” value ([11]; 0.1250 kg/ha) was 9.0, the “MOOVA herbicidal effect rating” value ([11]; 0.2500 kg/ha) was 9.0 and the ECHCG herbicidal rating ([12]; rate 0.0158 kg/ha) was 2.0. The ECHCG herbicidal rating ([12]; rate 0.0315 kg/ha) was 2.0, the ECHCG herbicidal rating ([12]; rate 0.0630 kg/ha) was 5.0 and the GLXMAW herbicidal rating ([13]; rate 0.0158 kg/ha) was 6.0. The GLXMAW herbicidal rating ([13]; rate 0.0315 kg/ha) was 5.5, the GLXMAW herbicidal rating ([13]; rate 0.0630 kg/ha) was 7.0 and the “Preemergence herbicidal rating ABUTH” value ([14]; rate 0.0156 kg/ha) was 0.0. For the same compound, the “Preemergence herbicidal rating ABUTH” value ([14]; rate 0.0313 kg/ha) was 1.0, the “Preemergence herbicidal rating ABUTH” value ([14]; rate 0.0625 kg/ha) was 1.0 and the “Preemergence herbicidal rating ABUTH” value ([14]; rate 0.1250 kg/ha) was 5.0. For the same compound, the “Preemergence herbicidal rating ABUTH” value ([14]; rate 0.2500 kg/ha) was 9.0, the “Preemergence herbicidal rating CHEAL” value ([15]; rate 0.0156 kg/ha) was 2.0 and the “Preemergence herbicidal rating CHEAL” value ([15]; rate 0.0313 kg/ha) was 9.0. The “Preemergence herbicidal rating CHEAL” value ([15]; rate 0.0625 kg/ha) was 9.0, the “Preemergence herbicidal rating CHEAL” value ([15]; rate 0.1250 kg/ha) was 9.0 and the “Preemergence herbicidal rating CHEAL” value ([15]; rate 0.2500 kg/ha) was 9.0. The “SAGPY herbicidal effect rating” value ([16]; 0.0313 kg/ha) was 0.0, the “SAGPY herbicidal effect rating” value ([16]; 0.0625 kg/ha) was 0.0 and the “SAGPY herbicidal effect rating” value ([16]; 0.1250 kg/ha) was 0.0. For the same compound, the “SAGPY herbicidal effect rating” value ([16]; 0.2500 kg/ha) was 3.0.
